Test results: PMC5773651, “Customised in vitro model to detect human metabolism-dependent idiosyncratic drug-induced liver injury” (Archives of Toxicology, 2017)
Like-named read-outs stand apart in the source and are kept apart here. Marks after values point to notes of the source that are not given here.

Legend:
HepG2 cells [1] = experiment: Cell viability (PI), IC50, control HepG2 cells; assay type: cell-based; conditions: Homo sapiens; control non-transduced HepG2; 24 h; unit inferred, tested range in µM; read-out: IC50 (cell viability), C
[2] = tested on: HepG2 cells transduced with AdCYP2C19; experiment: Cell viability (PI), IC50, AdCYP2C19-HepG2; assay type: cell-based; conditions: Homo sapiens, unit inferred, tested range in µM
Method: (§1) For subculturing purposes, cells were detached by treatment with 0.25% trypsin/0.02% EDTA at 37 °C. For the adenovirus infection studies, cells were seeded in 96-well plates (5000 cells/well) and adenovirus-containing medium was added 48 h later. After 24 h, cells were transferred to the adenovirus-free medium and cultured for an additional 24-h period prior to the incubations performed with the test chemicals. To optimise the expression of the functional enzymes in the adenovirus-transduced HepG2 (Ad-HepG2) cells, different doses (MOI, multiplicity of infection, defined as plaque formation units per cell) of each adenovirus were tested.
(§2) The drugs included in the study were chosen based on previous information about their hepatotoxicity. Information on the potential mechanisms implicated in the toxicity of each compound and the major enzymes involved in their metabolism is summarised in Table 1. HepG2 or Ad-HepG2 (48 h post-infection) cells were exposed for 24 h to eight concentrations of the tested compounds. Each experimental condition was repeated independently three times (with three wells measured each time). The stock solutions of compounds were prepared in DMSO and were conveniently diluted in the culture medium to obtain the desired final concentrations. The final DMSO concentration in the culture medium was 0.5% (v/v), and the control cultures were treated with the same amount of solvent.
(§3) Following treatments, cells were simultaneously loaded with several fluorescent dyes to measure multiple biomarkers of cell toxicity. […] Information about the probes is summarised in Supplementary Table S2.
(§4) After incubating with dyes, cells were imaged by the Scan^R system (Olympus, Germany). Dyes were excited, and their fluorescence was monitored at the excitation and emission wavelengths at appropriate filter settings. The collected images were analysed using the Scan^R analysis module, which allows the simultaneous quantification of subcellular structures that are stained by different fluorescent probes.

[3] = tested on: HepG2 cells transduced with AdCYP3A4; experiment: Cell viability (PI), IC50, AdCYP3A4-HepG2; assay type: cell-based; conditions: Homo sapiens, unit inferred, tested range in µM
Method: as §1, §2, §3, §4

[4] = tested on: HepG2 cells transduced with AdCYP1A2; experiment: Cell viability (PI), IC50, AdCYP1A2-HepG2; assay type: cell-based; conditions: Homo sapiens, unit inferred, tested range in µM
Method: as §1, §2, §3, §4

[5] = tested on: HepG2 cells transduced with AdCYP3A4; experiment: HCS hepatotoxicity assay (MEC, TR), AdCYP3A4-HepG2; assay type: cell-based, human; conditions: 24 h; for TR: TR = 100 x Cmax/lowest MEC; for MEC Apoptosis / MEC Calcium / MEC MMP / MEC Mitochondrial superoxide / MEC ROS: unit not given, tested range in µM
[6] = tested on: HepG2 cells transduced with AdCYP2C19; experiment: HCS hepatotoxicity assay (MEC, TR), AdCYP2C19-HepG2; assay type: cell-based, human; conditions: 24 h; for TR: TR = 100 x Cmax/lowest MEC; for MEC Apoptosis / MEC Calcium / MEC MMP / MEC Mitochondrial superoxide / MEC ROS: unit inferred, tested range in µM
Method: as §1, §2, §3, §4

[7] = tested on: HepG2 cells transduced with AdCYP1A2; experiment: HCS hepatotoxicity assay (MEC, TR), AdCYP1A2-HepG2; assay type: cell-based, human; conditions: 24 h; for MEC Apoptosis / MEC Calcium / MEC MMP / MEC Mitochondrial superoxide / MEC ROS: unit inferred, tested range in µM; for TR: TR = 100 x Cmax/lowest MEC
Method: as §1, §2, §3, §4

HepG2 cells [8] = conditions: human, 24 h
Method: as §1, §2, §3, §4

[9] = ref Atienzar et al. ([2014]), Garside et al. ([2014]), Tolosa et al. ([2012b]); cited from earlier work
[10] = cited from earlier work; for Bioactivation / Enzyme: major enzyme(s) involved in the bioactivation (denoted as *) or detoxification of the drug: previous information; for Toxicity (mechanisms of toxicity): ref Ashrafian et al. [2007], Donato et al. [2009], Fromenty and Pessayre [1997], Rolo et al. [2000], Tolosa et al. [2012b]; for DILI category: ref Gustafsson et al. ([2014])
[11] = tested on: HepG2 cells transduced with AdCYP2D6; experiment: Cell viability (PI), IC50, AdCYP2D6-HepG2; assay type: cell-based; conditions: Homo sapiens, unit inferred, tested range in µM
Method: as §1, §2, §3, §4

[12] = tested on: HepG2 cells transduced with AdCYP2D6; experiment: HCS hepatotoxicity assay (MEC, TR), AdCYP2D6-HepG2; assay type: cell-based, human; conditions: 24 h; for TR: TR = 100 x Cmax/lowest MEC; for MEC Apoptosis / MEC Calcium / MEC Lipids / MEC MMP / MEC Mitochondrial superoxide / MEC ROS: unit inferred, tested range in µM
Method: as §1, §2, §3, §4

CC(C)C(=O)Nc1ccc([N+](=O)[O-])c(C(F)(F)F)c1 [Flutamide]
IC50 (HepG2 cells [1]): 398 µM
IC50 ([2]; ADV CYP2C19 x1, 24 h, read-out: IC50 (cell viability), ADV dose x1): 344 µM
IC50 ([2]; ADV CYP2C19 x4, 24 h, read-out: IC50 (cell viability), ADV dose x4): 309 µM
IC50 ([2]; ADV CYP2C19 x10, 24 h, read-out: IC50 (cell viability), ADV dose x10): 255 µM
IC50 ([3]; ADV CYP3A4 x1, 24 h, read-out: IC50 (cell viability), ADV dose x1): 219 µM
IC50 ([3]; ADV CYP3A4 x4, 24 h, read-out: IC50 (cell viability), ADV dose x4): 176 µM
IC50 ([3]; ADV CYP3A4 x10, 24 h, read-out: IC50 (cell viability), ADV dose x10): 145 µM
IC50 ([4]; ADV CYP1A2 x1, 24 h, read-out: IC50 (cell viability), ADV dose x1): 384 µM
IC50 ([4]; ADV CYP1A2 x4, 24 h, read-out: IC50 (cell viability), ADV dose x4): 261 µM
IC50 ([4]; ADV CYP1A2 x10, 24 h, read-out: IC50 (cell viability), ADV dose x10): 248 µM
TR ([5]; AdCYP 3A4 1x): 2.5
MEC Apoptosis ([5]; AdCYP 3A4 1x): 500
MEC Calcium ([5]; AdCYP 3A4 1x): 250
MEC MMP ([5]; AdCYP 3A4 1x): 750
MEC Mitochondrial superoxide ([5]; AdCYP 3A4 1x): 500
MEC ROS ([5]; AdCYP 3A4 1x): 250
TR ([5]; AdCYP 3A4 4x): 5.0
MEC Apoptosis ([5]; AdCYP 3A4 4x): 250
MEC Calcium ([5]; AdCYP 3A4 4x): 250
MEC MMP ([5]; AdCYP 3A4 4x): 500
MEC Mitochondrial superoxide ([5]; AdCYP 3A4 4x): 250
MEC ROS ([5]; AdCYP 3A4 4x): 125
TR ([5]; AdCYP 3A4 10x): 5.0
MEC Apoptosis ([5]; AdCYP 3A4 10x): 125
MEC Calcium ([5]; AdCYP 3A4 10x): 250
MEC MMP ([5]; AdCYP 3A4 10x): 250
MEC Mitochondrial superoxide ([5]; AdCYP 3A4 10x): 125
MEC ROS ([5]; AdCYP 3A4 10x): 125
TR ([6]; AdCYP 2C19 1x): 2.5
MEC Apoptosis ([6]; AdCYP 2C19 1x): 250 µM
MEC Calcium ([6]; AdCYP 2C19 1x): 250 µM
MEC MMP ([6]; AdCYP 2C19 1x): 250 µM
MEC Mitochondrial superoxide ([6]; AdCYP 2C19 1x): 250 µM
MEC ROS ([6]; AdCYP 2C19 1x): 250 µM
TR ([6]; AdCYP 2C19 4x): 6.2
MEC Apoptosis ([6]; AdCYP 2C19 4x): 250 µM
MEC Calcium ([6]; AdCYP 2C19 4x): 100 µM
MEC MMP ([6]; AdCYP 2C19 4x): 250 µM
MEC Mitochondrial superoxide ([6]; AdCYP 2C19 4x): 250 µM
MEC ROS ([6]; AdCYP 2C19 4x): 250 µM
TR ([6]; AdCYP 2C19 10x): 12.4
MEC Apoptosis ([6]; AdCYP 2C19 10x): 100 µM
MEC Calcium ([6]; AdCYP 2C19 10x): 75 µM
MEC MMP ([6]; AdCYP 2C19 10x): 250 µM
MEC Mitochondrial superoxide ([6]; AdCYP 2C19 10x): 50 µM
MEC ROS ([6]; AdCYP 2C19 10x): 50 µM
MEC Apoptosis ([7]; AdCYP 1A2 1x): 250 µM
MEC Calcium ([7]; AdCYP 1A2 1x): 500 µM
MEC MMP ([7]; AdCYP 1A2 1x): 500 µM
MEC Mitochondrial superoxide ([7]; AdCYP 1A2 1x): 75 µM
MEC ROS ([7]; AdCYP 1A2 1x): 500 µM
TR ([7]; AdCYP 1A2 4x): 12.4
MEC Apoptosis ([7]; AdCYP 1A2 4x): 250 µM
MEC Calcium ([7]; AdCYP 1A2 4x): 500 µM
MEC MMP ([7]; AdCYP 1A2 4x): 500 µM
MEC Mitochondrial superoxide ([7]; AdCYP 1A2 4x): 50 µM
MEC ROS ([7]; AdCYP 1A2 4x): 500 µM
TR ([7]; AdCYP 1A2 10x): 12.4
MEC Apoptosis ([7]; AdCYP 1A2 10x): 125 µM
MEC Calcium ([7]; AdCYP 1A2 10x): 50 µM
MEC MMP ([7]; AdCYP 1A2 10x): 500 µM
MEC Mitochondrial superoxide ([7]; AdCYP 1A2 10x): 50 µM
MEC ROS ([7]; AdCYP 1A2 10x): 250 µM
MEC Apoptosis (HepG2 cells [8]): 500 µM
MEC Calcium (HepG2 cells [8]): 500
MEC MMP (HepG2 cells [8]): 500
MEC Mitochondrial superoxide (HepG2 cells [8]): 500
MEC ROS (HepG2 cells [8]): 500
TR (HepG2 cells [8]): 1.2
Cmax [9]: 6.2 µM
Bioactivation [10]: Yes
Enzyme: major enzyme(s) involved in the bioactivation (denoted as *) or detoxification of the drug [10]: CYP1A2*, CYP2C19*, CYP3A4*
Toxicity (mechanisms of toxicity) [10]: MI, OS
DILI category [10]: Severe

C1CCC(C(CC2CCCCN2)C2CCCCC2)CC1 (centres unmarked) [Perhexiline]
IC50 (HepG2 cells [1]): 22.5 µM
IC50 ([11]; ADV CYP2D6 x1, 24 h, read-out: IC50 (cell viability), ADV dose x1): 24.4 µM
IC50 ([11]; ADV CYP2D6 x4, 24 h, read-out: IC50 (cell viability), ADV dose x4): 25.5 µM
IC50 ([11]; ADV CYP2D6 x10, 24 h, read-out: IC50 (cell viability), ADV dose x10): 27.4 µM
TR ([12]; AdCYP 2D6 1x): 17.6
MEC Apoptosis ([12]; AdCYP 2D6 1x): 22.5 µM
MEC Calcium ([12]; AdCYP 2D6 1x): 12.5 µM
MEC Lipids ([12]; AdCYP 2D6 1x): > 27.5 µM
MEC MMP ([12]; AdCYP 2D6 1x): 22.5 µM
MEC Mitochondrial superoxide ([12]; AdCYP 2D6 1x): 22.5 µM
MEC ROS ([12]; AdCYP 2D6 1x): > 27.5 µM
TR ([12]; AdCYP 2D6 4x): 17.6
MEC Apoptosis ([12]; AdCYP 2D6 4x): 25 µM
MEC Calcium ([12]; AdCYP 2D6 4x): 12.5 µM
MEC Lipids ([12]; AdCYP 2D6 4x): > 27.5 µM
MEC MMP ([12]; AdCYP 2D6 4x): 27.5 µM
MEC Mitochondrial superoxide ([12]; AdCYP 2D6 4x): 22.5 µM
MEC ROS ([12]; AdCYP 2D6 4x): > 27.5 µM
TR ([12]; AdCYP 2D6 10x): 17.6
MEC Apoptosis ([12]; AdCYP 2D6 10x): 25 µM
MEC Calcium ([12]; AdCYP 2D6 10x): 12.5 µM
MEC Lipids ([12]; AdCYP 2D6 10x): > 27.5 µM
MEC MMP ([12]; AdCYP 2D6 10x): > 27.5 µM
MEC Mitochondrial superoxide ([12]; AdCYP 2D6 10x): 22.5 µM
MEC ROS ([12]; AdCYP 2D6 10x): > 27.5 µM
MEC Apoptosis (HepG2 cells [8]): 15 µM
MEC Calcium (HepG2 cells [8]): 10
MEC Lipids (HepG2 cells [8]): 10
MEC MMP (HepG2 cells [8]): 22.5
MEC Mitochondrial superoxide (HepG2 cells [8]): 10
MEC ROS (HepG2 cells [8]): 25
TR (HepG2 cells [8]): 22
Bioactivation [10]: No
Enzyme: major enzyme(s) involved in the bioactivation (denoted as *) or detoxification of the drug [10]: CYP2D6
Toxicity (mechanisms of toxicity) [10]: MI, ST
DILI category [10]: Severe
